Assay [1] has as its system CDK8 (phosphorylation of STAT1 at serine 727 in A549 cells). Nature of the assay: Cell based Phospho-STAT1 assay (IFNγ-stimulated A549 cells, AlphaLISA). The settings on record: Homo sapiens, A549, A549 cells, phospho-STAT1 after IFNγ stimulation. In outline:
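A549 cells given serial compound dilutions for 1 h at 37 °C, then stimulated with IFNγ at 10 ng/mL final for 30 min. Lysate STAT1 Ser727 phosphorylation measured by AlphaLISA; % inhibition vs stimulated/unstimulated DMSO controls, IC50 by nonlinear regression.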

In assay [2] the test system is CDK8 (TCF/LEF luciferase reporter in HCT116 cells). Nature of the assay: Cell based TCF/LEF reporter assay (HCT116+TCF/LEF luciferase). The conditions noted are these: Homo sapiens, HCT-116, 24 h. In outline: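 HCT116 cells stably carrying a TCF/LEF-luciferase reporter (endogenous mutant β-catenin), seeded overnight, then exposed to serial compound dilutions for 24 h at 37 °C. Luminescence normalized to CellTiter-Fluor viability signal. % inhibition relative to DMSO and 10 uM CCT251545 controls, with IC50 from nonlinear regression.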

Turning to `O=C1NCCC12CCN(c1cccn3ncc(-c4ccc(OCCN5CCOCC5)cc4)c13)CC2` [Compound P-0135, 8-(3-(4-(2-morpholino-ethoxy)phenyl)pyrazolo[1,5-a]pyridin-4-yl)-2,8-diazaspiro[4.5]decan-1-one], the IC50 in assay [1] and in assay [2] was 0.1 to 1 µM throughout.

As for `Cn1ncc2cc(-c3cnn4ccnc(C5=CCC(C(N)=O)CC5)c34)ccc21` (stereo not shown) [Compound P-0136, 4-(3-(1-methyl-1H-indazol-5-yl)pyrazolo[1,5-a]pyrazin-4-yl)cyclohex-3-ene-1-carboxamide], the IC50 in assay [1] and in assay [2] was 0.0001 to 0.1 µM in each case.

On to `COc1ccc(-c2cnn3cccc(C4CCC(C#N)CC4)c23)cc1` (stereo not shown) [Compound P-0137, 4-(3-(4-methoxyphenyl)pyrazolo[1,5-a]pyridin-4-yl)cyclohexane-1-carbonitrile], for which the IC50 in assay [1] and in assay [2] was 0.0001 to 0.1 µM throughout.

For the molecule `N#CC1CCC(c2cccn3ncc(-c4ccc(NCCN5CCOCC5)nc4)c23)CC1` (stereo not shown) [Compound P-0138, 4-(3-(6-((2-morpholinoethyl)amino)pyridin-3-yl)pyrazolo[1,5-a]pyridin-4-yl)cyclohexane-1-carbonitrile], the IC50 in assay [1] and in assay [2] was 0.0001 to 0.1 µM each time.

In the case of `N#CC1CCC(c2cccn3ncc(-c4ccc(F)cc4)c23)CC1` (stereo not shown) [Compound P-0139, 4-(3-(4-fluorophenyl)pyrazolo[1,5-a]pyridin-4-yl)cyclohexane-1-carbonitrile], the IC50 in assay [1] and in assay [2] was 0.0001 to 0.1 µM in each case.

With `Cc1nnc(-c2ccc(-c3cnn4cccc(C5CCC(C#N)CC5)c34)cc2)o1` (stereo not shown) [Compound P-0140, 4-(3-(4-(5-methyl-1,3,4-oxadiazol-2-yl)phenyl)pyrazolo[1,5-a]pyridin-4-yl)cyclohexane-1-carbonitrile], the IC50 in assay [1] and in assay [2] was 0.0001 to 0.1 µM each time.

As for `N#CC1CCC(c2cccn3ncc(-c4ccc(N5CCOCC5)nc4)c23)CC1` (stereo not shown) [Compound P-0141, 4-(3-(6-morpholinopyridin-3-yl)pyrazolo[1,5-a]pyridin-4-yl)cyclohexane-1-carbonitrile], the IC50 in assay [1] and in assay [2] was 0.0001 to 0.1 µM in each case.

`N#CC1CCC(c2cccn3ncc(-c4ccc(OCCCN5CCCCC5)cc4)c23)CC1` (stereo not shown) [Compound P-0142, 4-(3-(4-(3-(piperidin-1-yl)propoxy)phenyl)pyrazolo[1,5-a]pyridin-4-yl)cyclohexane-1-carbonitrile]: the IC50 in assay [1] and in assay [2] was 0.0001 to 0.1 µM in each case.

Turning to `N#CC1CCC(c2cccn3ncc(-c4ccc(OCC(O)CN5CCCCC5)cc4)c23)CC1` (stereo not shown) [Compound P-0143, 4-(3-(4-(2-hydroxy-3-(piperidin-1-yl)propoxy)phenyl)pyrazolo[1,5-a]pyridin-4-yl)cyclohexane-1-carbonitrile], the 50% inhibitory concentration (IC50) in assay [1] and in assay [2] was 0.0001 to 0.1 µM each time.

Turning to `N#CC1CCC(c2cccn3ncc(-c4ccc(OCC5CCCCO5)cc4)c23)CC1` (stereo not shown) [Compound P-0144, 4-(3-(4-((tetrahydro-2H-pyran-2-yl)methoxy)phenyl)pyrazolo[1,5-a]pyridin-4-yl)cyclohexane-1-carbonitrile], the IC50 in assay [1] and in assay [2] was 0.0001 to 0.1 µM throughout.

Consider `O=C1NCCC12CCN(c1cccn3ncc(-c4ccc(OCCOC5CCOCC5)cc4)c13)CC2` [Compound P-0145, 8-(3-(4-(2-((tetrahydro-2H-pyran-4-yl)oxy)ethoxy)phenyl)pyrazolo[1,5-a]pyridin-4-yl)-2,8-diazaspiro[4.5]decan-1-one], for which the half-maximal inhibitory concentration (IC50) in assay [1] and in assay [2] was 0.0001 to 0.1 µM in each case.

As to `N#CC1CC=C(c2nccn3ncc(-c4ccc(OCCOC5CCOCC5)cc4)c23)CC1` (stereo not shown) [Compound P-0146, 4-(3-(4-(2-((tetrahydro-2H-pyran-4-yl)oxy)ethoxy)phenyl)pyrazolo[1,5-a]pyrazin-4-yl) cyclohex-3-ene-1-carbonitrile], the IC50 in assay [1] and in assay [2] was 0.0001 to 0.1 µM each time.

As for `COc1ccc2cc(-c3cnn4ccnc(C5=CCC(C#N)CC5)c34)ccc2n1` (stereo not shown) [Compound P-0147, 4-(3-(2-methoxyquinolin-6-yl)pyrazolo[1,5-a]pyrazin-4-yl)cyclohex-3-ene-1-carbonitrile], the IC50 in assay [1] and in assay [2] was 0.0001 to 0.1 µM each time.

On to `Cc1nc2cc(-c3cnn4ccnc(C5=CCC(C#N)CC5)c34)ccc2s1` (stereo not shown) [Compound P-0148, 4-(3-(2-methylbenzo[d]thiazol-5-yl)pyrazolo[1,5-a]pyrazin-4-yl)cyclohex-3-ene-1-carbonitrile], for which the concentration for half-maximal inhibition (IC50) was in the range of 0.1 to 1 µM in assay [1] and 0.0001 to 0.1 µM in assay [2].

Consider `Cc1nc2ccc(-c3cnn4ccnc(C5=CCC(C#N)CC5)c34)cc2s1` (stereo not shown) [Compound P-0149, 4-(3-(2-methylbenzo[d]thiazol-6-yl)pyrazolo[1,5-a]pyrazin-4-yl)cyclohex-3-ene-1-carbonitrile], for which the IC50 in assay [1] and in assay [2] was 0.0001 to 0.1 µM in each case.

`CS(=O)(=O)Nc1ccc2cc(-c3cnn4cccc(C5=CCC(C#N)CC5)c34)ccc2n1` (stereo not shown) [Compound P-0150, N-(6-(4-(4-cyanocyclohex-1-en-1-yl)pyrazolo[1,5-a]pyridin-3-yl)quinolin-2-yl)methanesulfonamide]: the half-inhibitory concentration (IC50) in assay [1] and in assay [2] was 0.0001 to 0.1 µM throughout.

Turning to `CS(=O)(=O)Nc1ccc2cc(-c3cnn4ccnc(C5=CCC(C#N)CC5)c34)ccc2n1` (stereo not shown) [Compound P-0151, N-(6-(4-(4-cyanocyclohex-1-ene-1-yl)pyrazolo[1,5-a]pyrazin-3-yl)quinolin-2-yl)methanesulfonamide], the IC50 in assay [1] and in assay [2] was 0.0001 to 0.1 µM in each case.

For `Cc1ccc(-c2cnn3ccnc(C4=CCC(C(N)=O)CC4)c23)cn1` (stereo not shown) [Compound P-0152, 4-(3-(6-methylpyridin-3-yl)pyrazolo[1,5-a]pyrazin-4-yl)cyclohex-3-ene-1-carboxamide], the IC50 was in the range of 0.1 to 1 µM in assay [1] and 0.0001 to 0.1 µM in assay [2].

As for `Cc1ccc2cc(-c3cnn4ccnc(C5=CCC(C(N)=O)CC5)c34)ccc2n1` (stereo not shown) [Compound P-0153, 4-(3-(2-methylquinolin-6-yl)pyrazolo[1,5-a]pyrazin-4-yl)cyclohex-3-ene-1-carboxamide], the IC50 in assay [1] and in assay [2] was 0.0001 to 0.1 µM throughout.

For `COc1ccc2cc(-c3cnn4ccnc(C5=CCC(C(N)=O)CC5)c34)ccc2n1` (stereo not shown) [Compound P-0154, 4-(3-(2-methoxyquinolin-6-yl)pyrazolo[1,5-a]pyrazin-4-yl)cyclohex-3-ene-1-carboxamide], the IC50 in assay [1] and in assay [2] was 0.0001 to 0.1 µM each time.

Consider `COc1ccc(-c2cnn3ccnc(C4=CCC(C(N)=O)CC4)c23)cn1` (stereo not shown) [Compound P-0155, 4-(3-(6-methoxypyridin-3-yl)pyrazolo[1,5-a]pyrazin-4-yl)cyclohex-3-ene-1-carboxamide], for which the IC50 in assay [1] and in assay [2] was 0.1 to 1 µM each time.

As to `Cn1cc(-c2ccc(-c3cnn4cccc(N5CC6CCC(C5)C6C#N)c34)cc2)cn1` (stereo not shown) [Compound P-0159, 3-(3-(4-(1-methyl-1H-pyrazol-4-yl)phenyl)pyrazolo[1,5-a]pyridin-4-yl)-3-azabicyclo[3.2.1]octane-8-carbonitrile], the half-maximal inhibitory concentration (IC50) in assay [1] and in assay [2] was 0.1 to 1 µM throughout.

On to `N#CC1C2CCC1CN(c1cccn3ncc(-c4ccc(Cl)cc4)c13)C2` (stereo not shown) [Compound P-0161, 3-(3-(4-chlorophenyl)pyrazolo[1,5-a]pyridin-4-yl)-3-azabicyclo[3.2.1]octane-8-carbonitrile], for which the IC50 in assay [1] and in assay [2] was 1 to 10 µM in each case.

Turning to `CC(C)(O)Cn1cc(-c2ccc(-c3cnn4ccnc(C5=CCC(C#N)CC5)c34)cc2)cn1` (stereo not shown) [Compound P-0162, 4-(3-(4-(1-(2-hydroxy-2-methylpropyl)-1H-pyrazol-4-yl)phenyl)pyrazolo[1,5-a]pyrazin-4-yl)cyclohex-3-ene-1-carbonitrile], the IC50 in assay [1] and in assay [2] was 0.0001 to 0.1 µM each time.

As for `CC(C)(O)Cn1cc(-c2ccc(-c3cnn4ccnc(C5=CCC(C#N)CC5)c34)cc2F)cn1` (stereo not shown) [Compound P-0163, 4-(3-(3-fluoro-4-(1-(2-hydroxy-2-methylpropyl)-1H-pyrazol-4-yl)phenyl)pyrazolo[1,5-a]pyrazin-4-yl)cyclohex-3-ene-1-carbonitrile], the IC50 in assay [1] and in assay [2] was 0.0001 to 0.1 µM each time.

As to `Cc1nc2ccc(-c3cnc4[nH]ccc4c3C3=CCC(C#N)CC3)cc2s1` (stereo not shown) [Compound P-0164, 4-(5-(2-methylbenzo[d]thiazol-6-yl)-1H-pyrrolo[2,3-b]pyridin-4-yl)cyclohex-3-ene-1-carbonitrile], the IC50 in assay [1] and in assay [2] was 0.0001 to 0.1 µM throughout.

Turning to `COc1ccc2ccc(-c3cnn4ccnc(C5=CCC(C#N)CC5)c34)cc2n1` (stereo not shown) [Compound P-0165, 4-(3-(2-methoxyquinolin-7-yl)pyrazolo[1,5-a]pyrazin-4-yl)cyclohex-3-ene-1-carbonitrile], the results for the half-inhibitory concentration (IC50) in assay [1] and in assay [2] were 0.1 to 1 µM and 1 to 10 µM, respectively.

As to `CS(=O)(=O)Nc1ccc2cc(-c3cnn4ccnc(C5=CCC(C#N)CC5)c34)ccc2c1` (stereo not shown) [Compound P-0166, N-(6-(4-(4-cyanocyclohex-1-en-1-yl)pyrazolo[1,5-a]pyrazin-3-yl)naphthalen-2-yl)methanesulfonamide], the half-inhibitory concentration (IC50) in assay [1] and in assay [2] was 0.0001 to 0.1 µM throughout.

As for `COc1ccc2cc(-c3cnn4cccc(N5CCC6(CCNC6=O)CC5)c34)ccc2n1` [Compound P-0167, 8-(3-(2-methoxyquinolin-6-yl)pyrazolo[1,5-a]pyridin-4-yl)-2,8-diazaspiro[4.5]decan-1-one], the IC50 in assay [1] and in assay [2] was 0.0001 to 0.1 µM each time.

The values above are taken from patent US10703757B2, “Compounds and methods for CDK8 modulation and indications therefor” (Plexxikon Inc., priority 2016, dated 2020).
